Experimental data taken from patent publication US7977360B2, “Benzo[d]isoxazol-3-yl-amine compounds and their use as vanilloid receptor ligands” (Gruenenthal GmbH, priority 2005, dated 2011).

Biological target: T1, vanilloid receptor 1 (VR1/TRPV1 receptor) (Rattus norvegicus, UniProt O35433)
T1 construct: endogenous in cells; host or cells: primary cultured dorsal root ganglion cells from rats
Experiment: Functional study on vanilloid receptor 1 (VR1/TRPV1), FLIPR Ca2+ inflow assay in rat dorsal root ganglia cells (method I)
Format: cell-based
Conditions: compound 10 μM, rat DRG cells; for inhibition at 10 µM: then 100 nM capsaicin after 5 min, per method % inhibition vs maximum achievable inhibition with 10 μM capsaicin, read-out: rVR1 [10 μM] inhibition; for rVR1 [10 μM] stimulation: per method % activation in relation to the Ca2+ signal after 10 μM capsaicin
Text: I. Functional Study on Vanilloid Receptor 1 (VR1/TRPV1 Receptor)
The agonistic or antagonistic effect of the substances to be studied on vanilloid receptor 1 (VR1/TRPV1) of the rat species can be determined with the following assay. According to this assay, the Ca^2+ inflow through the receptor canal is quantified with the help of a Ca^2+-sensitive dye (type Fluo-4, Molecular Probes Europe BV, Leiden Netherlands) in the Fluorescent Imaging Plate Reader (FLIPR, Molecular Devices, Sunnyvale, USA).
Complete medium: 50 mL HAMS F12 Nutrient Mixture (Gibco Invitrogen GmbH, Karlsruhe, Germany) with • 10% by vol. FCS (fetal calf serum, Gibco Invitrogen GmbH, Karlsruhe, Germany, heat-inactivated); • 2 mM L-glutamine (Sigma, Munich, Germany); • 1% by weight AA solution (antibiotic/antimycotic solution, PAA, Pasching, Austria) and 25 ng/ml medium NGF (2.5 S, Gibco Invitrogen GmbH, Karlsruhe, Germany)
Cell culture plate: Poly-D-Lysin-coated, 96 well black/clear plates (BD Biosciences, Heidelberg, Germany) are additionally coated with laminin (Gibco Invitrogen GmbH, Karlsruhe, Germany) by diluting laminin to a concentration of […] with PBS (Ca—Mg-free PBS, Gibco Invitrogen GmbH, Karlsruhe, Germany). Aliquots with a concentration of 100 μg/mL of laminin are removed and stored at −20° C. The aliquots are diluted with PBS in a ratio of 1:10 to 10 μg/mL of laminin and respectively 50 μL of the solution is pipetted into a recess of the cell culture plate. Die cell culture plates are incubated for at least two hours at 37° C., the remaining solutions is filtered off by suction and the recesses are each washed twice with PBS. The coated cell culture plates are stored with the remaining PBS and this is only removed directly before the addition of the cells.
The spinal column is removed from decapitated rats and this is placed directly in a cold HBSS buffer (Hank's buffered saline solution, Gibco Invitrogen GmbH, Karlsruhe, Germany), located in an ice bath, to which is added 1% by vol. (percent by volume) of an AA solution (antibiotic/antimycotic solution, PM, Pasching, Austria). The spinal column is divided longitudinally and removed from the vertebral canal together with fascia. The dorsal root ganglia (DRGs) are subsequently removed and in turn stored in cold HBSS buffer to which is added 1% by vol. of an AA solution. The DRGs which have been made completely free of blood residues and spinal nerves are transported in each case into 500 μL cold collagenase type 2 (PAA, Pasching, Austria) and incubated for 35 minutes at 37° C. […]
The DRGs are each multiply suspended, drawn by means of a syringe through cannulas no. […] The resultant pellet is respectively received in 250 μL complete medium and the cell number determined. […]

T1 sequence (O35433 whole entry): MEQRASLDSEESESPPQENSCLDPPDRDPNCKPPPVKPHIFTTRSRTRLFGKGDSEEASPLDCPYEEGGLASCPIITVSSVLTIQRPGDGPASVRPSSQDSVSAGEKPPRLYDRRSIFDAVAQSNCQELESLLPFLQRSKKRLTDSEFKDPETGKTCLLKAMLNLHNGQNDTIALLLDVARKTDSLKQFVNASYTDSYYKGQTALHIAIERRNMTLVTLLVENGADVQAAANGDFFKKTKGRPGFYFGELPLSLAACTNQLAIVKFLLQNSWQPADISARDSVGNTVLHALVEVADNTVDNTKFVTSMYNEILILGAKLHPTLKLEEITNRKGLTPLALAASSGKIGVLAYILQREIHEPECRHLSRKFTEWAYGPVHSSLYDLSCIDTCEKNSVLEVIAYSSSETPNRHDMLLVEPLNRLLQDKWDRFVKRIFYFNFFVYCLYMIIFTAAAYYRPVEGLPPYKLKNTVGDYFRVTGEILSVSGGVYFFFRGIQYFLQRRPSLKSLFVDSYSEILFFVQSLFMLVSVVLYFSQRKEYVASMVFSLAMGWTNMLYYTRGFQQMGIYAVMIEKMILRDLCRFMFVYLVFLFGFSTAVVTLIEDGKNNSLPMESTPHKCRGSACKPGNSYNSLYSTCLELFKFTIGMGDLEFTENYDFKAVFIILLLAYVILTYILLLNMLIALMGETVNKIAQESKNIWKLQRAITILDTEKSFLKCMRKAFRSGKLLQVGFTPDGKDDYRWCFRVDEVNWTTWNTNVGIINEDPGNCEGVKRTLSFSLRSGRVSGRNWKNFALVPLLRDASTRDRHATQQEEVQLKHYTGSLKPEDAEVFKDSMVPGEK

`CC(C)(C)c1ccc(CNc2noc3cc(-c4ccccn4)ccc23)cc1` [Compound 9, (4-tert-butyl-benzyl)-(6-pyridine-2-yl-benzo[d]isoxazol-3-yl)-amine] showed an inhibition at 10 µM of 65% and a rVR1 [10 μM] stimulation of 0%.

`Cc1cccnc1-c1ccc2c(NCc3ccc(C(C)(C)C)cc3)noc2c1` [Compound 10, (4-tert-butyl-benzyl)-[6-(3-methyl-pyridine-2-yl)-benzo[d]isoxazol-3-yl]-amine] gave an inhibition at 10 µM of 99% and a rVR1 [10 μM] stimulation of 29%.
